PubChem BioAssay AID449750 (Broad Institute, 2010)
Activity calls are given as the source filed them. How the calls were made is not given here.

Assay: non-covalent RecA intein splicing inhibitors, dose response, biochemical, cell-free, fluorescence, secondary screen (AID 449750)

Row | SMILES | AC50
1 | Cc1onc(-c2c(Cl)cccc2Cl)c1C(=O)N1C(C)CCCC1C (stereo unspecified) | > 38 µM (inactive)
2 | CCOc1ccccc1Nc1nnc(Cc2ccccc2Cl)c(=O)[nH]1 | > 38 µM (inactive)
3 | O=C(Oc1ccccc1N1C(=O)CCC1=O)c1ccco1 | > 38 µM (inactive)
4 | COC(=O)c1ccccc1OC(=O)c1ccc(Br)o1 | > 38 µM (inactive)
5 | CN1C(=O)C(Cc2ccc3c(c2)OCO3)C(=O)N(C)C1=O | > 38 µM (inactive)
6 | COC(=O)CCS(=O)(=O)c1nc(-c2ccccc2)cc(C(F)(F)F)n1 | > 38 µM (inactive)
7 | Cc1nc2ccccc2c2c1C(=O)N(Cc1cccnc1)C2=O | > 38 µM (inactive)
8 | COC(=O)c1c(NC(=O)/C=C/C(=O)O)sc(C)c1-c1ccc(C(C)C)cc1 | 11.6 µM
9 | CCOC(=O)C1CCC2(CC1)C(C#N)=C(N)Oc1n[nH]c(C)c12 (stereo unspecified) | > 38 µM (inactive)
10 | CCn1c(COc2cccc3ccccc23)nnc1SCC(N)=O | > 38 µM (inactive)
11 | Fc1ccc(Sc2nc(-c3ccccc3)nnc2C(F)(F)F)cc1 | > 38 µM (inactive)
12 | Cc1ccc(S(=O)(=O)N[C@@H](CCCCN)C(=O)CCl)cc1 | > 38 µM (inactive)
13 | CCOC(=O)C1=C(c2ccccc2)NC(N)=NC1c1ccc(OCc2ccc(Cl)cc2)c(OC)c1 (stereo unspecified) | 10.2 µM
14 | COC(=O)c1cc(C)nc2c1C(=O)C(=O)C=C2N1CCOCC1 | 1.16 µM
15 | Cc1[nH]n(-c2ccccc2)c(=O)c1C(c1ccc(O)c([N+](=O)[O-])c1)c1c(C)[nH]n(-c2ccccc2)c1=O | 2.77 µM
16 | O=C1C2=C(c3ccccc31)[N+](=O)C1CCCCC1N2[O-] (stereo unspecified) | 18.3 µM
17 | O=[N+]([O-])c1cc(S(=O)(=O)C(F)(F)F)ccc1Sc1nc2ccccc2[nH]1 | 16 µM
18 | CC1CCCN(C(=O)COc2ccc(NC(=O)c3cccs3)cc2)C1 (stereo unspecified) | > 38 µM (inactive)
19 | Cc1sc(NC(=O)/C=C/C(=O)O)c(C(N)=O)c1-c1ccc(C(C)(C)C)cc1 | 11.9 µM
20 | O=C(CSc1c2c(nc3cc(Cl)ccc13)CCCC2)NCc1ccco1 | 26.4 µM
21 | CCCNC1=C(N(C(C)=O)c2cccc(F)c2)C(=O)c2ccccc2C1=O | 3.72 µM
22 | O=C(Cc1cc(=O)[nH][nH]1)N/N=C/c1ccccc1Cl | 15.8 µM

Row | SMILES | AC50
23 | O=C1/C(=C/c2ccc(F)cc2)SC(=S)N1CC(=O)N1CCCCC1c1cccnc1 (stereo unspecified) | 38.4 µM
24 | CC(=O)N1C(=O)C2(C(C#N)=C(N)Oc3c2c(C)nn3-c2ccccc2)c2ccccc21 (stereo unspecified) | 28 µM
25 | O=C1C(Nc2ccccc2)=C/C(=N/S(=O)(=O)c2cccs2)c2ccccc21 | 0.226 µM
26 | CCOc1cc(/C=C2\C(=N)N3N=C(N4CCCCC4)SC3=NC2=O)ccc1OC(=O)c1ccco1 | > 38 µM (inactive)
27 | O=C1C(Cl)=C(NCC2CCCO2)C(=O)N1c1ccccc1 (stereo unspecified) | > 38 µM (inactive)
28 | CCOC(=O)CC1=NN(c2ccccc2)C(=O)C1 | 36 µM
29 | CCc1nnc(NC(=O)c2nc(S(=O)(=O)Cc3ccccc3)ncc2Cl)s1 | 31.2 µM
30 | CCN(CC)CCOc1ccc(/C(=C(\Cl)c2ccccc2)c2ccccc2)cc1 | 9.57 µM
31 | O=C(CCl)Nc1cn(-c2ccccc2)nc1-c1ccccc1 | 7.77 µM
32 | Cc1cc(C)n(-c2ccc([N+](=O)[O-])cc2)n1 | > 38 µM (inactive)
33 | CN(C(=O)c1ccc(S(=O)(=O)c2cccc(Cl)c2)c([N+](=O)[O-])c1)C1CCCCC1 | 13.7 µM
34 | Cc1cccc(Cn2ncc(Cl)c(Cl)c2=O)c1 | 18 µM
35 | CCCc1[nH]nc2c1C(c1ccc(OC(=O)c3ccco3)cc1)C(C#N)=C(N)O2 (stereo unspecified) | > 38 µM (inactive)
36 | Cc1nc2c(=O)n(C)c(=O)nc-2n(C)n1 | 0.0855 µM
37 | COc1ccc(-c2oc(NC(=O)CCl)c(C#N)c2-c2ccc(OC)cc2)cc1 | 1.55 µM
38 | O=C(c1ccc(Cl)cc1)n1cnc2ccccc21 | > 38 µM (inactive)
39 | O=S(=O)(Nc1c(O)ccc2ccccc12)c1ccc(F)cc1 | 13.3 µM
40 | CCOc1ccc(S(=O)(=O)NCc2cccnc2)cc1C | > 38 µM (inactive)
41 | CCCCCCCCCCCCCCCC[N+](C)(C)C | 12.1 µM
42 | CSc1nnc(NC(=O)c2nc(S(=O)(=O)Cc3cccc(C)c3)ncc2Cl)s1 | > 38 µM (inactive)
43 | CSc1nnc(NC(=O)c2nc(S(=O)(=O)Cc3ccc(C)cc3)ncc2Cl)s1 | > 38 µM (inactive)
44 | Oc1ccc(N=Cc2ccc(OCc3ccccc3)cc2)cc1 | > 38 µM (inactive)

Row | SMILES | AC50
45 | CCOC(=O)c1c(NC(=O)CCl)sc(C(=O)N(CC)CC)c1C | 4.22 µM
46 | CCSC1(SCC)N=C(N)C2(C#N)C(c3ccc(F)cc3)C12C#N (stereo unspecified) | 38.3 µM
47 | O=C(Nc1ccccc1)Nc1ccc(O)c2ccccc12 | 14.4 µM
48 | O=C1c2ccccc2C(=O)c2c1ncn2-c1ccccc1 | > 38 µM (inactive)
49 | CCCCNC1=CC(=O)C(=O)c2ccccc21 | 7.53 µM
50 | O=C(Oc1cccc(OC(=O)c2ccco2)c1)c1ccco1 | 5.11 µM
51 | Cc1cc(C)c(C(CC(=O)c2cccs2)C(C#N)C#N)c(C)c1 (stereo unspecified) | 38.8 µM
52 | O=C(Nc1cccc(OC(=O)c2ccco2)c1)c1ccco1 | > 38 µM (inactive)
53 | CCCCOC(=O)CNc1nnc(SCC(=O)OCC)[nH]c1=O | > 38 µM (inactive)
54 | COc1cc(/C=C/c2sc3ccccc3[n+]2CCCS(=O)(=O)[O-])ccc1O | > 38 µM (inactive)
55 | COC(=O)c1c(NC(=O)/C=C/C(=O)O)sc(C)c1-c1ccc(C)c(C)c1 | 26.5 µM
56 | Cc1ccc(C[n+]2c(-c3ccc(C)cc3)cc(-c3ccc(C)cc3)cc2-c2ccc(C)cc2)cc1 | 6.62 µM
57 | O=C1c2ccccc2C(=O)c2c1oc(C(F)(F)F)c2C(=O)c1ccccc1 | > 38 µM (inactive)
58 | Cc1cc2c(N)cccc2nn1 | > 38 µM (inactive)
59 | Cc1cc(=O)n(-c2ccc(O)cc2)[nH]1 | 7.46 µM
60 | CC1=NN(c2ccccc2)C(=O)/C1=C/c1c(O)n(-c2ccc(F)c(Cl)c2)[nH]c1=O | 10.3 µM
61 | O=C(O)CC1S/C(=N/N=C/c2ccc(-c3ccccc3[N+](=O)[O-])o2)NC1=O (stereo unspecified) | 9.4 µM
62 | CCOC(=O)c1cc2cc3ccccc3cc2[nH]1 | > 38 µM (inactive)
63 | CCC(=O)Nc1c(C)nn(C(=O)CC)c1C | > 38 µM (inactive)
64 | COC(=O)c1ccc(C(c2c(C)[nH][nH]c2=O)c2c(C)[nH][nH]c2=O)cc1 | > 38 µM (inactive)
65 | COc1cccc(-n2nnnc2S(C)(=O)=O)c1 | > 38 µM (inactive)
66 | CCCCCCCOC(=O)c1ccc(OC(=O)c2cccnc2)cc1 | 4.17 µM

Row | SMILES | AC50
67 | COc1ccccc1N1C(=O)Cc2ccccc2C1=O | > 38 µM (inactive)
68 | COc1ccc(S(=O)(=O)Nc2ccc(O)c3ccccc23)cc1 | 0.296 µM
69 | O=S(=O)(Nc1ccc(-n2cnnn2)cc1)c1ccc(F)c(F)c1F | > 38 µM (inactive)
70 | CCOc1ccc(N2C(=O)/C(=C\c3ccc(O)c(OC)c3)S(=O)(=O)C2c2cccc([N+](=O)[O-])c2)cc1 (stereo unspecified) | > 38 µM (inactive)
71 | O=C(NCCc1ccccc1)C(c1cccs1)N(C(=O)CCl)c1ccc(Cl)cc1 (stereo unspecified) | 1.03 µM
72 | Cc1sc(NC(=O)CSC2=NCCS2)nc1-c1ccccc1 | 26.1 µM
73 | Cc1cccc(CS(=O)(=O)c2ncc(Cl)c(C(=O)NCc3ccc4c(c3)OCO4)n2)c1 | > 38 µM (inactive)
74 | CCOc1ccc(S(=O)(=O)Nc2cc(SCC(=O)O)c(O)c3ccccc23)cc1 | 2.81 µM
75 | Cc1cc(-c2[nH]nc3c2C(c2cccc(O)c2)C(C#N)=C(N)O3)c(C)s1 (stereo unspecified) | 28.8 µM
76 | Cc1nn(Cc2ccccc2)c2c1C(c1ccco1)C(C#N)=C(N)O2 (stereo unspecified) | > 38 µM (inactive)
77 | CC(=O)Oc1c(Br)cc(N(C(C)=O)S(=O)(=O)c2ccccc2)c2ccccc12 | 8.88 µM
78 | CC1=C(C)/C(=N\OC(=O)/C=C/c2ccccc2)C=CC1=O | > 38 µM (inactive)
79 | Oc1cc(O)c2c(c1)O[C@H](c1ccc(O)c(O)c1)[C@@H](O)C2 | > 38 µM (inactive)
80 | Oc1cc(O)c2c(c1)O[C@H](c1ccc(O)c(O)c1)[C@H](O)C2 | > 38 µM (inactive)
81 | Cc1ccc(C2=NN(C(=O)CCl)C(c3cccs3)C2)o1 (stereo unspecified) | > 38 µM (inactive)
82 | N#CC1=C(N)Oc2n[nH]c(-c3ccc(F)cc3)c2C1c1ccncc1 (stereo unspecified) | 8.32 µM
83 | CS/C(=C/[N+](=O)[O-])Nc1cccc2c1C(C)CC2(C)C (stereo unspecified) | > 38 µM (inactive)
84 | CC(=O)Oc1ccc(/C=C2/C(=O)N(c3ccccc3)N=C2C)cc1 | 4.09 µM
85 | Cc1ccc(NC2=C/C(=N\S(=O)(=O)c3cccs3)c3ccccc3C2=O)c(C)c1 | 0.304 µM
86 | O=S(=O)(Cc1ccccc1)c1cnc2ccccc2n1 | > 38 µM (inactive)
87 | CCOc1cc(/C=C(/C#N)C(=O)Nc2ccc(O)cc2)cc(Br)c1O | > 38 µM (inactive)
88 | Cc1noc2ncnc(Sc3ccc(Br)cc3)c12 | 13.5 µM

Row | SMILES | AC50
89 | O=c1[nH]c(CCl)nc2cc(-c3ccc(F)cc3)sc12 | 11.9 µM
90 | O=C(O)/C=C/C(=O)Nc1ccc(SC(F)(F)C(F)(F)C(F)(F)F)cc1 | 7.99 µM
91 | N#Cc1ncc(-c2ccc3c(c2)OCCOCCOCCOCCO3)nc1C#N | > 38 µM (inactive)
92 | N#C[C@H]1[C@H](c2ccccc2)[C@](C#N)(C(=O)c2ccccc2)[C@@H]2C=Cc3ccccc3N21 | > 38 µM (inactive)
93 | COc1ccccc1/C=C1/C(=O)N(c2ccccc2)N=C1C | > 38 µM (inactive)
94 | O=C(O)CSc1cc(NS(=O)(=O)c2ccc(Br)cc2)c2ccccc2c1O | 2.2 µM
95 | CCOC(=O)N1CCC2(CC1)C(C#N)=C(N)Oc1n[nH]c(C)c12 | > 38 µM (inactive)
96 | Nc1cc(N)c(OCC(F)(F)F)cc1OCC(F)(F)F | 9.65 µM
97 | O=C1CC(c2cccnc2)=NN1c1ccccc1 | > 38 µM (inactive)
98 | CCOC(=O)C1=C(O)c2ccccc2C(=O)/C1=C\c1ccc(CC)cc1 | 7.05 µM
99 | CN(Cc1ccc(Cl)s1)C(=O)CCl | 19.3 µM
100 | CCCC(=O)OCCNc1cc(Sc2nccn2C)c2nonc2c1[N+](=O)[O-] | > 38 µM (inactive)
101 | CC(=O)N(CCC(Cc1ccccc1)c1ccc2c(c1)OCO2)Cc1ccccc1F (stereo unspecified) | 3.99 µM
102 | Cc1cc(C)c(S(=O)(=O)/N=C2\C=C(Nc3ccc(C(=O)O)cc3)C(=O)c3ccccc32)c(C)c1 | 0.669 µM
103 | O=C(Nc1ccccc1)c1nnsc1S(=O)c1ccc(Cl)cc1 (stereo unspecified) | > 38 µM (inactive)
104 | Cc1[nH][nH]c(=O)c1C(c1ccc(N(C)C)c(Br)c1)c1c(C)[nH][nH]c1=O | 38.7 µM
105 | Cc1ccc(C)c(-c2ccc(=O)n(Cc3cccc(Br)c3)n2)c1 | 16.7 µM
106 | Cc1ccc(C(c2c(C)[nH][nH]c2=O)c2c(C)[nH][nH]c2=O)cc1[N+](=O)[O-] | 32.1 µM
